The record followed here is US20230024096A1, “BIFUNCTIONAL COMPOUNDS FOR THE TREATMENT OF CANCER” (Hoffmann-La Roche Inc., priority 2019, published 2023).

The target in the assay is T1, SMARCA2 (Homo sapiens, UniProt P51531).
T1 construct: endogenous in cells; host or cells: HT1080 (CRISPR HiBiT knock-in clone, generated in house)
The assay is described as follows: SMARCA2 HiBiT degradation assay (cellular). In kind it is cell-based. The note with it: table head names A549; for DC50: 6 h incubation, HiBiT-tagged SMARCA2, luminescence read-out, read-out: HiBit A549 SMARCA2 IP (nM) 6 h; for Emax: A549, 6 h incubation, Emax = amount of residual protein remaining in the cell following compound treatment. (In general: With HiBiT, luminescence reflects the tagged protein that the partner subunit can reach.)

T1 sequence (P51531 whole entry): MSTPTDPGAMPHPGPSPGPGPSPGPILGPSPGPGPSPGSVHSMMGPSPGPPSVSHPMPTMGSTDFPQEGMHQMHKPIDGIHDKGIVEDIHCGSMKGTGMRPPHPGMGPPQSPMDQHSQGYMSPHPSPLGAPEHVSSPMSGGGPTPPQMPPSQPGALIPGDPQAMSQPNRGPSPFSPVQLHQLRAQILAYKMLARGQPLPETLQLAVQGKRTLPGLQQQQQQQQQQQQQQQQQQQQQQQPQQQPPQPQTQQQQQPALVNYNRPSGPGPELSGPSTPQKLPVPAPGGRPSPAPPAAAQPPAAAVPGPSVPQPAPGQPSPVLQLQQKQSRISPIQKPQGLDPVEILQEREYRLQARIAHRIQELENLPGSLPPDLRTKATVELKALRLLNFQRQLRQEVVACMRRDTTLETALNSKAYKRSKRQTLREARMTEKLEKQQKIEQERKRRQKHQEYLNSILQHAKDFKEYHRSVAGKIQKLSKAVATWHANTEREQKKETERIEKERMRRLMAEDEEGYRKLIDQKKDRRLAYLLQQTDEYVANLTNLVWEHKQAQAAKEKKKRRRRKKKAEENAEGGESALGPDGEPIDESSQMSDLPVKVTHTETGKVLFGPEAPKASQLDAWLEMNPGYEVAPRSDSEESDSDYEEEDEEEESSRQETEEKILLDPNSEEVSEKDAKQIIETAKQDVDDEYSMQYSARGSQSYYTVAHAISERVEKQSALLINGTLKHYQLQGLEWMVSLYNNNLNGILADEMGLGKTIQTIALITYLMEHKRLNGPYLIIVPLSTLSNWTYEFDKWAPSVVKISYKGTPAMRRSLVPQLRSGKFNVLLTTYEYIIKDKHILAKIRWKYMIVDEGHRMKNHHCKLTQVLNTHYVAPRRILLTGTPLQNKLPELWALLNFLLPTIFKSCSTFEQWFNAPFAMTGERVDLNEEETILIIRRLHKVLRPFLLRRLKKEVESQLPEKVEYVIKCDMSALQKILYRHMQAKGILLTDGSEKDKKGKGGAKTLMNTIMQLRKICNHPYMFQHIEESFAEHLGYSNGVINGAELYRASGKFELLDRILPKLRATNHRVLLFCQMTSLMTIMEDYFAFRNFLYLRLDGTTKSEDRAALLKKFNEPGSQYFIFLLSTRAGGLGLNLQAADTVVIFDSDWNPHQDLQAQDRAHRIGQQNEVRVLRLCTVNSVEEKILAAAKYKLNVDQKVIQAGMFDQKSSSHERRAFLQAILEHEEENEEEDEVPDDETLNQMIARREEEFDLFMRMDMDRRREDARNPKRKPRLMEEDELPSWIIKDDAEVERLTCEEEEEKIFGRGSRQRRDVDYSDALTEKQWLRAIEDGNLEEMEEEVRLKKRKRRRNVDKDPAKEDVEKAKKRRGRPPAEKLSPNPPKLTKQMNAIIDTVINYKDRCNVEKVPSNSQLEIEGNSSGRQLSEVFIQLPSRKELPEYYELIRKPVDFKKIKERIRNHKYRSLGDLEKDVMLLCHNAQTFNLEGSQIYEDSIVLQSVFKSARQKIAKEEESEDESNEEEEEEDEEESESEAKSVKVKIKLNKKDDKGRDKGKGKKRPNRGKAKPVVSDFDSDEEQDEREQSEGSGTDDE

Broadly, the Emax is the greatest response seen or fitted, relative to the assay's reference. For `Nc1nnc(-c2cc(F)cc(F)c2O)cc1N1CCC(CNC(=O)CCCN2CCC(c3ccc(OC4CCC(=O)NC4=O)cc3)CC2)(c2ccccc2)CC1` (centres unmarked) [Example 182, N-[[1-[3-amino-6-(3,5-difluoro-2-hydroxy-phenyl)pyridazin-4-yl]-4-phenyl-4-piperidyl]methyl]-4-[4-[4-[(2,6-dioxo-3-piperidyl)oxy]phenyl]-1-piperidyl]butanamide], the DC50 was 103 nM and the Emax was determined as 47%.

As for `Nc1nnc(-c2ccccc2O)cc1OC1CCCN(c2ccc(N3CCN(CCCCC(=O)N4CCC(n5cc(COc6cccc7c6C(=O)N(C6CCC(=O)NC6=O)C7=O)nn5)CC4)CC3)cc2)C1` (racemic) [Example 138, 2-(2,6-dioxo-3-piperidyl)-4-[[1-[1-[5-[4-[4-[rac-(3S)-3-[3-amino-6-(2-hydroxyphenyl)pyridazin-4-yl]oxy-1-piperidyl]phenyl]piperazin-1-yl]pentanoyl]-4-piperidyl]triazol-4-yl]methoxy]isoindoline-1,3-dione], the DC50 is 678 nM and the Emax was 42%.

Consider `Nc1nnc(-c2ccccc2O)cc1N1CCC(C(=O)NCC2CCN(C(=O)CN3CCC(c4ccc(NC5CCC(=O)NC5=O)cc4)CC3)CC2)(c2ccccc2)CC1` (centres unmarked) [Example 102, 1-[3-amino-6-(2-hydroxyphenyl)pyridazin-4-yl]-N-[[1-[2-[4-[4-[(2,6-dioxopiperidin-3-yl)amino]phenyl]piperidin-1-yl]acetyl]piperidin-4-yl]methyl]-4-phenylpiperidine-4-carboxamide], for which the DC50 came to 102 nM and the Emax amounted to 38%.

`Nc1nnc(-c2ccccc2O)cc1N1CCC(C(=O)N2CCC3(CC2)CN(C(=O)CCCN2CCC(c4ccc(OC5CCC(=O)NC5=O)cc4)CC2)CCO3)(c2ccccc2)CC1` (centres unmarked) [Example 181, 3-(4-(1-(4-(9-(1-(3-amino-6-(2-hydroxyphenyl)pyridazin-4-yl)-4-phenylpiperidine-4-carbonyl)-1-oxa-4,9-diazaspiro[5.5]undecan-4-yl)-4-oxobutyl)piperidin-4-yl)phenoxy)piperidine-2,6-dione]: the DC50 is 99 nM and the maximal response (Emax) is 56%.

As for `Nc1nnc(-c2ccccc2O)cc1O[C@H]1CCCN(c2ccc(N3CCN(CCCCCCCCCn4cc(CNc5cccc6c5C(=O)N(C5CCC(=O)NC5=O)C6=O)nn4)CC3)cc2)C1` (mixture of isomers) [Example 66, 2-(2,6-dioxo-3-piperidyl)-4-[[1-[9-[4-[4-[rac-(3S)-3-[3-amino-6-(2-hydroxyphenyl)pyridazin-4-yl]oxy-1-piperidyl]phenyl]piperazin-1-yl]nonyl]triazol-4-yl]methylamino]isoindoline-1,3-dione], the DC50 is 144 nM and the Emax was 60%.

In the case of `Nc1nnc(-c2ccccc2O)cc1OC1CCCN(c2ccc(OCCN3CCN(C(=O)CCCCCCCCCCCCCCn4cc(CNc5cccc6c5C(=O)N(C5CCC(=O)NC5=O)C6=O)nn4)CC3)cc2)C1` (centres unmarked) [Example 24, 4-[[1-[15-[4-[2-[4-[3-[3-amino-6-(2-hydroxyphenyl)pyridazin-4-yl]oxy-1-piperidyl]phenoxy]ethyl]piperazin-1-yl]-15-oxo-pentadecyl]triazol-4-yl]methylamino]-2-(2,6-dioxo-3-piperidyl)isoindoline-1,3-dione], the DC50 was 256 nM and the Emax is 56%.

As for `Nc1nnc(-c2ccccc2O)cc1N1CC2CCC(C1)N2c1cccc(OC2CCN(C(=O)CN3CCC(c4ccc(NC5CCC(=O)NC5=O)cc4)CC3)CC2)c1` (racemic) [Example 114, rac-3-[4-[1-[2-[4-[3-[3-[3-amino-6-(2-hydroxyphenyl)pyridazin-4-yl]-3,8-diazabicyclo[3.2.1]octan-8-yl]phenoxy]-1-piperidyl]-2-oxo-ethyl]-4-piperidyl]anilino]piperidine-2,6-dione], the DC50 came out at 82 nM and the maximum response (Emax) is 40%.
